# In US20050197372A1 (priority 2002, published 2005):
# How the values were obtained:
# [1] = tested on: platelet vitronectin receptor (CD51/CD61); test: Whole blood flow cytometry, vitronectin receptor expression; format: cell-based, human; details: for Expression of platelet vitronectin receptor (CD51/CD61): baseline 11.2 ± 4.6
# Procedure: (§1) None of them received aspirin or any other anti-platelet agents. All subjects underwent blood sampling after at least 30 minutes of rest and 2 or more hours of fasting. Blood was drawn between 8 and 10 a.m. in order to avoid any diurnal influence and sampled from an antecubital vein using a 21-gauge butterfly needle containing 3.8% sodium citrate (1:9 volume) after having discarded the first 1.5 ml of free running blood. Eleven Vacutainer tubes (4.5 ml) were collected for a total of 49 ml of whole blood-citrate mixture from each study participant. One tube was kept as an internal control and was incubated with buffer solution. […] To avoid possible observer bias, blood samples were coded and blinded. Sampling procedures, and platelet studies were performed by individuals unaware of the protocol.
# (§2) The expression of platelet receptors was determined by using the following monoclonal antibodies: CD31 (platelet endothelial cell adhesion molecule (PECAM-1), CD41 (glycoprotein [GP] IIb/IIIa, (IIb (3), CD42b (GP Ib), CD 51/CD61 ((v (3, or vitronectin receptor), CD62p (P-selectin), CD107a (lysosome associated membrane protein-1; LAMP-1), CD 107b (LAMP-2), CD151 (platelet/endothelial tetraspan antigen-3; PETA-3), and PAC-1 for fibrinogen-platelet (PharMingen, San Diego, Calif.). Platelet-leukocyte interactions were assessed by using dual antibodies for a pan-platelet marker (CD 151), together with CD14, a monocyte/macrophage marker. The blood-citrate mixture (50 μl) was diluted with 450 μl Tris buffered saline (TBS) (10 mmol/L Tris, 0.15 mol/L sodium chloride) and mixed by gently inverting an Eppendorf tube 2 times. Five μl of the corresponding antibodies were then added to each solution and the samples were incubated for 30 minutes. After incubation, 400 μl of 2% buffered paraformaldehyde was added for fixation. The samples were analyzed by a Becton Dickinson FACScan flow cytometer set up to measure fluorescent light scatter, as described in Gurbel P A, et al., J Am Coll Cardiol. 1998; 31: 1466-1473. The data were collected in list mode files and then analyzed. P selectin was expressed as percent positive cells as described in Gurbel P A, et al, Am Heart J 2000; 139: 320-328. Other antigens were expressed as log mean fluorescence intensity.
# [2] = tested on: platelet-leukocyte microparticles (CD151 + CD14); test: Whole blood flow cytometry, platelet-leukocyte microparticles; format: cell-based, human; details: for Formation of platelet-leukocyte microparticles (CD151 + CD14): baseline 92.2 ± 19.3
# Procedure: as §1, §2
# [3] = tested on: shear-induced platelet aggregation; test: PFA-100 closure time, epinephrine/collagen cartridge; format: cell-based, human; details: for PFA-100 closure time with the epinephrine/collagen cartridge: baseline 201 ± 22
# Procedure: as §1
# The platelet function analyzer (PFA-100′, Dade Behring, Deerfield, Ill.) is a device that simulates changes in primary hemostasis after injury to a small vessel under flow conditions. Kundu S K, et al., Semin Thromb Hemost 1995; 21(Suppl 2): 106-112. The time required to obtain occlusion of the aperture was digitally recorded as a measure of shear-induced platelet aggregation. Closure time determinations were performed in duplicate.
# [4] = tested on: lysosome associated membrane protein -2 (LAMP-2, CD107b); test: Whole blood flow cytometry, LAMP-2 expression; format: cell-based, human; details: for Expression of lysosome associated membrane protein -2 (LAMP-2, CD107b): baseline 6.6 ± 2.1
# Procedure: as §1, §2
# [5] = tested on: lysosome associated membrane protein -1 (LAMP-1, CD107a); test: Whole blood flow cytometry, LAMP-1 expression; format: cell-based, human; details: baseline 8.7 ± 3.2
# Procedure: as §1, §2
# [6] = tested on: glycoprotein Ib (GPIb, CD42b); test: Whole blood flow cytometry, GP Ib expression; format: cell-based, human; details: for Expression of glycoprotein Ib (GPIb, CD42b): baseline 246.4 ± 26.7
# Procedure: as §1, §2
# P-selectin (CD 62p) = test: Whole blood flow cytometry, P-selectin expression; format: cell-based, human; details: for Expression of P-selectin (CD 62p): baseline 9.1 ± 3.8
# Procedure: as §1, §2
# [7] = tested on: Glycoprotein IIb/IIIa activity (fibrinogen binding, PAC-1); test: Whole blood flow cytometry, GP IIb/IIIa activity (PAC-1); format: cell-based, human; details: for Glycoprotein IIb/IIIa activity (fibrinogen binding, PAC-1): baseline 10.3 ± 2.8
# Procedure: as §1, §2
# [8] = tested on: human platelets (platelet-rich plasma); test: Platelet-rich plasma aggregation induced by 5 μM ADP; format: cell-based; details: for Platelet rich plasma aggregation induced by 5 μM ADP: 60 minutes at 37° C., baseline 75 ± 8
# Procedure: as §1
# The citrate and whole blood mixture were centrifuged at 1200 g for 5 minutes in order to obtain platelet-rich plasma (PRP) which was kept at room temperature for use within 1 hour. Platelet counts were determined for each PRP sample with a Coulter Counter ZM (Coulter Co., Hialeah, Fla.). Platelet numbers were adjusted to 3.50×10 ^8/ml with homologous platelet-poor plasma. Platelet aggregation (PA) was induced by 5 μM ADP, and 5 μM epinephrine. All agonists were obtained from Chronolog Corporation (Havertown, Pa.). Aggregation studies were performed using a 4 channel Chronolog Lumi-Aggregometer (model 560-Ca). Aggregation was expressed as the maximum percentage of light transmittance change (% max) from the baseline at the end of the recording time, using platelet-poor plasma as a reference. Aggregation curves were recorded for 6 minutes and analyzed according to internationally established standards. Ruggeri Z M, Semin Hemat 1994; 31: 229-239.
structure (smiles),measurement,setting,value
"CC(O)CCC(=O)N(Cc1ccc(-c2ccccc2-c2nnn[nH]2)cc1)[C@H](C(=O)O)C(C)C (stereo partly drawn) [Valeryl 4-hydroxy valsartan, (S)-2{(4-Hydroxy-pentanoyl)-[2′-(1H-tetrazol-5-yl)-biphenyl-4-ylmethyl]amino}-3-methyl-butyric Acid]",Expression of platelet vitronectin receptor (CD51/CD61),[1]; drug 10 nM,12.1 ± 4.2 log MFI
same,Expression of platelet vitronectin receptor (CD51/CD61),[1]; drug 100 nM,8.5 ± 3.1 log MFI
same,Expression of platelet vitronectin receptor (CD51/CD61),[1]; drug 1 μM,8.1 ± 3.8 log MFI
same,Expression of platelet vitronectin receptor (CD51/CD61),[1]; drug 10 μM,7.2 ± 5.6 log MFI
same,Expression of platelet vitronectin receptor (CD51/CD61),[1]; drug 100 μM,7.6 ± 3.3 log MFI
same,Effect on expression of vitronectin receptors (in words),[1]; whole blood flow cytometry,moderately reduced
same,Formation of platelet-leukocyte microparticles (CD151 + CD14),[2]; drug 10 nM,99.4 ± 29.7 log MFI
same,Formation of platelet-leukocyte microparticles (CD151 + CD14),[2]; drug 100 nM,94.3 ± 18.7 log MFI
same,Formation of platelet-leukocyte microparticles (CD151 + CD14),[2]; drug 1 μM,90.7 ± 20.5 log MFI
same,Formation of platelet-leukocyte microparticles (CD151 + CD14),[2]; drug 10 μM,89.2 ± 18.7 log MFI
same,Formation of platelet-leukocyte microparticles (CD151 + CD14),[2]; drug 100 μM,95.6 ± 19.9 log MFI
same,Effect on platelet-leukocyte microparticles (CD151+14) (in words),[2]; whole blood flow cytometry,not associated with any effect
same,Antiplatelet properties compared with valsartan (in words),[3]; cartridge-based analyzers (PFA-100 and Ultegra),stronger antiplatelet properties than valsartan
same,PFA-100 closure time with the epinephrine/collagen cartridge,[3]; drug 10 nM,179 ± 28 s
same,PFA-100 closure time with the epinephrine/collagen cartridge,[3]; drug 100 nM,190 ± 24 s
same,PFA-100 closure time with the epinephrine/collagen cartridge,[3]; drug 1 μM,259 ± 20 s
same,PFA-100 closure time with the epinephrine/collagen cartridge,[3]; drug 10 μM,257 ± 25 s
same,PFA-100 closure time with the epinephrine/collagen cartridge,[3]; drug 100 μM,232 ± 31 s
same,"Expression of lysosome associated membrane protein -2 (LAMP-2, CD107b)",[4]; drug 10 nM,7.7 ± 3.8 log MFI
same,"Expression of lysosome associated membrane protein -2 (LAMP-2, CD107b)",[4]; drug 100 nM,7.0 ± 3.0 log MFI
same,"Expression of lysosome associated membrane protein -2 (LAMP-2, CD107b)",[4]; drug 1 μM,6.6 ± 3.4 log MFI
same,"Expression of lysosome associated membrane protein -2 (LAMP-2, CD107b)",[4]; drug 10 μM,7.2 ± 3.9 log MFI
same,"Expression of lysosome associated membrane protein -2 (LAMP-2, CD107b)",[4]; drug 100 μM,7.1 ± 2.9 log MFI
same,Effect on LAMP-2 (CD107b) (in words),[4]; whole blood flow cytometry,not associated with any effect
same,"Expression of lysosome associated membrane protein -1 (LAMP-1, CD107a)",[5]; drug 10 nM,10.2 ± 3.6 log MFI
same,"Expression of lysosome associated membrane protein -1 (LAMP-1, CD107a)",[5]; drug 100 nM,9.0 ± 4.0 log MFI
same,"Expression of lysosome associated membrane protein -1 (LAMP-1, CD107a)",[5]; drug 1 μM,6.6 ± 2.9 log MFI
same,"Expression of lysosome associated membrane protein -1 (LAMP-1, CD107a)",[5]; drug 10 μM,5.8 ± 3.2 log MFI
same,"Expression of lysosome associated membrane protein -1 (LAMP-1, CD107a)",[5]; drug 100 μM,8.0 ± 3.4 log MFI
same,"Expression of glycoprotein Ib (GPIb, CD42b)",[6]; drug 10 nM,236.4 ± 18.7 log MFI
same,"Expression of glycoprotein Ib (GPIb, CD42b)",[6]; drug 100 nM,267.9 ± 39.4 log MFI
same,"Expression of glycoprotein Ib (GPIb, CD42b)",[6]; drug 1 μM,255.5 ± 24.8 log MFI
same,"Expression of glycoprotein Ib (GPIb, CD42b)",[6]; drug 10 μM,249.7 ± 41.8 log MFI
same,"Expression of glycoprotein Ib (GPIb, CD42b)",[6]; drug 100 μM,248.1 ± 19.5 log MFI
same,Effect on GP Ib (CD42) (in words),[6]; whole blood flow cytometry,not associated with any effect
same,Expression of P-selectin (CD 62p),P-selectin (CD 62p); drug 10 nM,9.3 ± 4.3 % of cell positivity
same,Expression of P-selectin (CD 62p),P-selectin (CD 62p); drug 100 nM,10.2 ± 5.4 % of cell positivity
same,Expression of P-selectin (CD 62p),P-selectin (CD 62p); drug 1 μM,7.3 ± 3.7 % of cell positivity
same,Expression of P-selectin (CD 62p),P-selectin (CD 62p); drug 10 μM,6.9 ± 4.2 % of cell positivity
same,Expression of P-selectin (CD 62p),P-selectin (CD 62p); drug 100 μM,8.9 ± 3.8 % of cell positivity
same,Effect on P-selectin on platelet surface (in words),P-selectin (CD 62p); whole blood flow cytometry,significantly diminished
same,"Glycoprotein IIb/IIIa activity (fibrinogen binding, PAC-1)",[7]; drug 10 nM,11.0 ± 4.5 log MFI
same,"Glycoprotein IIb/IIIa activity (fibrinogen binding, PAC-1)",[7]; drug 100 nM,9.0 ± 3.3 log MFI
same,"Glycoprotein IIb/IIIa activity (fibrinogen binding, PAC-1)",[7]; drug 1 μM,6.7 ± 2.7 log MFI
same,"Glycoprotein IIb/IIIa activity (fibrinogen binding, PAC-1)",[7]; drug 10 μM,7.5 ± 3.1 log MFI
same,"Glycoprotein IIb/IIIa activity (fibrinogen binding, PAC-1)",[7]; drug 100 μM,9.9 ± 3.0 log MFI
same,Effect on fibrinogen binding (PAC-1) (in words),[7]; whole blood flow cytometry,slightly reduced
same,Effect on ADP-induced platelet aggregation (in words),"[8]; PRP, 5 μM ADP, preincubation with escalating doses 10 nM to 100 μM",did not have any effect
same,Platelet rich plasma aggregation induced by 5 μM ADP,[8]; drug 10 nM,75 ± 6%
same,Platelet rich plasma aggregation induced by 5 μM ADP,[8]; drug 100 nM,76 ± 8%
same,Platelet rich plasma aggregation induced by 5 μM ADP,[8]; drug 1 μM,77 ± 9%
same,Platelet rich plasma aggregation induced by 5 μM ADP,[8]; drug 10 μM,76 ± 8%
same,Platelet rich plasma aggregation induced by 5 μM ADP,[8]; drug 100 μM,77 ± 9%
